From patent US6930207B2, “Trifluoroacetylalkyl-substituted phenyl, phenol and benzoyl compounds and related methods of treatment” (Solvay Pharmaceutical GmbH, priority 2001, dated 2005)
Like-named read-outs stand apart in the source and are kept apart here.

How the values were obtained:
[1] = biological target: T1, porcine pancreatic lipase (Sus scrofa, UniProt P00591); assay: in vitro pancreatic lipase activity test (lipolytic release of p-nitrophenol from p-nitrophenyl palmitate, extinction at 405 nm); type: biochemical; conditions: read-out: residual lipase activity, relative to the original initial lipolytic activity; for remaining activity at 0.182 µM: test substance concentration 0.182 μM; for remaining activity at 0.091 µM: test substance concentration 0.091 μM
T1 sequence (P00591 1-450): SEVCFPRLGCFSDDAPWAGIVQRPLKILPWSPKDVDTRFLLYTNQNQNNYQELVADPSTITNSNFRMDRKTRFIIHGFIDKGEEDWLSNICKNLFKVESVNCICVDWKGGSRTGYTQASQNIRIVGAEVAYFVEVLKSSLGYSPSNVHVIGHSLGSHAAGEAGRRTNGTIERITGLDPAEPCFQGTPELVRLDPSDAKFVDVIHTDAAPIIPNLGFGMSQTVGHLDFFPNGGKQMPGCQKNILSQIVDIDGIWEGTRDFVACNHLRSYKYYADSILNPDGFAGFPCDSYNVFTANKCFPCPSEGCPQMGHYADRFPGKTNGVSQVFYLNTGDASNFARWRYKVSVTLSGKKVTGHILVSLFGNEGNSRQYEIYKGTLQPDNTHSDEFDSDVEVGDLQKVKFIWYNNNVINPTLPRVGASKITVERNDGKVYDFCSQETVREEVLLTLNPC
Description: In this test the inhibition of the lipolytic action of porcine pancreatic lipase with respect to the test substrate p-nitrophenyl palmitate under the influence of the test substances of Formula I was determined. Therein, the change in the relative extinction of the investigated solutions caused by the lipolytic release of p-nitrophenol from p-nitrophenyl palmitate was measured. The residual activity of the lipase remaining after the addition of the test substances is given in percent, relative to the original initial lipolytic activity. The example numbers quoted relate to the preparation examples given below.
The reagents given below are prepared: • 1. Substrate Solution • For the preparation of a “solution A”, 45 mg p-nitrophenyl palmitate was dissolved in 15 ml isopropanol by sonication with ultrasound. For the preparation of a “solution B” 310 mg Na-deoxycholate dry substance and 150 mg gum arabic were dissolved in 135 ml 0.05 M sodium phosphate buffer (pH=8.0). 5 minutes before the test was performed, 9 ml “solution B” was mixed with 1 ml “solution A” to form a “solution C” and brought to a temperature of 38° C. • 2. Pancreatic Lipase Solution • 100 mg FIP-lipase standard LS7 (porcine pancreatic lipase, 36,700 FIP units/g) were dissolved in 50 ml ice-cold 1%-strength aqueous sodium chloride solution and filtered through a 0.2 μm-syringe filter. After determination of the lipase activity in accordance with FIP, the solution was set to an activity of 40 FIP units/ml with 1%-strength aqueous sodium chloride solution. Dilute pancreatic lipase solutions which had activities of in each case 10, 20 and 30 FIP units/ml were also prepared from the pancreatic lipase solution for a calibration series by diluting with 1%-strength aqueous sodium chloride solution. • 3. Inhibitor Solutions • The lipase-inhibitory compounds of Formula I were dissolved in various concentrations in dimethyl sulfoxide (DMSO), so that between 2.0 and 800 nmol of the inhibitor were present in 100 μl inhibitor solution. Pure DMSO was used to determine the blank reading. Performance of the Test
100 μl of the inhibitor solution of a given concentration prepared as described above was temperature-controlled for 5 minutes in the cell changer of a photometer (Biochrom 4060). Then 1 ml of the above “solution C” was added with stirring. Then the reaction was started by addition of 100 μl pancreatic lipase solution with stirring. 2 minutes after the start of the reaction, the extinction of each sample was detected for 4 minutes at 405 nm.
In each case, in addition to the sample measurement, a calibration series was also measured to determine the lipase activity. […] The calibration series served to determine the lipase activity. To determine the calibration series, the lipase units used were plotted against the extinction values (dE/min) determined in each case. Using these calibration lines and the extinction values determined for the respective incubation batches, the lipase activity can be determined for each sample. […] To determine the blank reading, 100 μl DMSO were mixed with 1 ml “solution C” and the reaction was started by addition of 100 μl of a lipase solution.
The measured value of the photometer per batch (dE/min.) is yielded by the difference in the extinction values after the second and sixth minute (dE) divided by the measuring time (dt=4 min.). The blank reading is determined analogously and then subtracted from the measured value. The residual activity can be read off via the calibration line by means of the dE value calculated in this manner.
In the pancreatic lipase activity test set forth above, the test substances given below each in a concentration (c) of 0.727 μM (unless otherwise stated) caused an inhibition of the lipase activity to the fraction of the original initial activity given below. The compounds of Examples 17, 28, 29, 32, 39, 40, 47, 48, 56, 58 and 59 were measured in a concentration of 0.364 μM each time. […]

[2] = test substance concentration (c) 0.727 μM, substrate p-nitrophenyl palmitate
[3] = substrate p-nitrophenyl palmitate
[4] = range of examples with mixed concentrations: 0.727 μM unless otherwise stated, Ex. 17, 28, 29, 32, 39, 40, 47, 48, 56, 58, 59 at 0.364 μM, 21, 35, 37, 38, 49, 50, 51, 54, 55, 64 at 0.182 μM, 46, 61, 62, 65 at 0.091 μM

remaining activity at 0.727 µM [1, 2] | melting point | remaining activity at 0.182 µM [1, 3] | Compound | other results
≤ 60% | 47 to 49 °C |  | O=C(CCCCCCCCCCOc1ccccc1)C(F)(F)F [Example 5, 1,1,1-trifluoro-12-phenoxy-dodecan-2-one] | 
 |  | ≤ 35% | COc1ccc(C(=O)CCCC(=O)C(F)(F)F)cc1CCCCc1ccccc1 [Example 35, 6,6,6-trifluoro-1-[4-methoxy-3-(4-phenylbutyl)phenyl]hexane-1,5-dione] | 
≤ 60% |  |  | O=C(CCCCCCCCCc1ccccc1)C(F)(F)F [Example 8, 1,1,1-trifluoro-11-phenyl-undecan-2-one] | 
 | 32 to 35 °C |  | O=C(CCCOc1ccc(OCCCc2ccccc2)cc1)C(F)(F)F [Example 32, 1,1,1-trifluoro-5-[4-(3-phenylpropoxy)phenoxy]pentan-2-one] | 
≤ 20% |  |  | O=C(CCCC(=O)C(F)(F)F)c1cccc(OCc2ccccc2)c1 [Example 34, 6,6,6-trifluoro-1-(3-benzyloxyphenyl)hexane-1,5-dione] | 
 |  | ≤ 20% | O=C(CCCC(=O)C(F)(F)F)c1ccc(-c2cccc3ccccc23)cc1 [Example 37, 6,6,6-trifluoro-1-[4-(1-naphthyl)phenyl]hexane-1,5-dione] | 
 |  |  | O=C(CCCC(=O)C(F)(F)F)c1ccc2c(c1)CCCC2 [Example 60, 6,6,6-trifluoro-1-(5,6,7,8-tetrahydronaphthalen-2-yl)hexane-1,5-dione] | remaining activity at 0.727 µM [1, 4]: ≤ 20%
 | 52.6 to 54.5 °C | ≤ 35% | O=C(CCCC(=O)C(F)(F)F)c1ccc(OCCCc2ccccc2)cc1 [Example 55, 6,6,6-trifluoro-1-(4-(3-phenylpropoxy)phenyl)hexane-1,5-dione] | remaining activity at 0.727 µM [1, 4]: ≤ 60%
 |  | ≤ 20% | COc1ccc(C(=O)C(CCCCOc2ccccc2)CCC(=O)C(F)(F)F)cc1 (stereo not shown) [Example 38, 6,6,6-trifluoro-1-(4-methoxyphenyl)-2-(4-phenoxybutyl)hexane-1,5-dione] | 
≤ 60% |  |  | COc1ccc(CCCC(=O)C(F)(F)F)cc1 [Example 11, 5-(4-methoxyphenyl)-1,1,1-trifluoropentan-2-one] | 
 |  |  | O=C(CCCC(=O)C(F)(F)F)c1ccc(-c2ccc3ccccc3c2)cc1 [Example 62, 6,6,6-trifluoro-1-(4-(2-naphthyl)phenyl)hexane-1,5-dione] | remaining activity at 0.727 µM [1, 4]: ≤ 20%; remaining activity at 0.091 µM [1, 3]: ≤ 60%
 | 67.7 to 68.9 °C |  | CCCCCCCCCCCCCCCCOc1ccc(C(=O)CCCC(=O)C(F)(F)F)cc1 [Example 63, 6,6,6-trifluoro-1-(4-(hexadecyloxy)phenyl)hexane-1,5-dione] | 
 | 63.3 to 65 °C |  | CCCCCCCCCCCCCCOc1ccc(C(=O)CCCC(=O)C(F)(F)F)cc1 [Example 65, 6,6,6-trifluoro-1-(4-(tetradecyloxy)phenyl)hexane-1,5-dione] | remaining activity at 0.091 µM [1, 3]: ≤ 20%
≤ 35% |  |  | O=C(CCCC(=O)C(F)(F)F)c1ccc(Br)cc1 [Example 57, 1-(4-bromophenyl)-6,6,6-trifluorohexane-1,5-dione] | 

Compound | remaining activity at 0.727 µM [1, 2] | melting point | remaining activity at 0.182 µM [1, 3] | other results
O=C(CCCC(=O)C(F)(F)F)c1ccc(OCCCCOc2ccccc2)cc1 [Example 54, 6,6,6-trifluoro-1-(4-(4-phenoxybutoxy)phenyl)hexane-1,5-dione] |  | 78.8 to 80.4 °C | ≤ 35% | remaining activity at 0.727 µM [1, 4]: ≤ 60%
